Laboratory results: paper PMC4618480

Assays:
[1] = on-resin RCM stapling (Rink amide MBHA), 16 mol% Ru catalyst 1 (Grubbs I), then TFA/TIS/H2O cleavage; conditions: the molecule shown is the open-chain precursor, DCE, 40.0 °C
[2] = RCM, 10 mol% Ru catalyst 2 (Grubbs II), quenched with ethyl vinyl ether; conditions: DCE, 2.0 mM, 40.0 °C, 4.0 h
[3] = RCM, 10 mol% Ru catalyst 1 (Grubbs I), quenched with ethyl vinyl ether; conditions: DCE, 2.0 mM, 40.0 °C, 4.0 h
[4] = RCM, 10 mol% Ru catalyst 5 (o-tolyl NHC Hoveyda type), quenched with ethyl vinyl ether; conditions: DCE, 2.0 mM, 40.0 °C, 4.0 h
[5] = RCM, 10 mol% Z-selective cyclometalated Ru catalyst 7 (Dipp), quenched with ethyl vinyl ether; conditions: DCE, 2.0 mM, 40.0 °C, 4.0 h
[6] = RCM, 10 mol% Ru catalyst 4 (nitro-Hoveyda/Grela), quenched with ethyl vinyl ether; conditions: DCE, 2.0 mM, 40.0 °C, 4.0 h
[7] = RCM, 10 mol% Z-selective cyclometalated Ru catalyst 6 (Mes), quenched with ethyl vinyl ether; conditions: DCE, 2.0 mM, 40.0 °C, 4.0 h
[8] = RCM, 10 mol% Ru catalyst 3 (Hoveyda-Grubbs II), quenched with ethyl vinyl ether; conditions: DCE, 2.0 mM, 40.0 °C, 4.0 h
[9] = from C=CCSC[C@H](NC(=O)OC(C)(C)C)C(=O)N[C@@H](CC(C)C)C(=O)N[C@@H](CC(C)C)C(=O)N[C@@H](CSCC=C)C(=O)OC, 18-membered ring
[10] = from C=CCOC[C@H](NC(=O)OC(C)(C)C)C(=O)N[C@@H](CC(C)C)C(=O)N[C@@H](CC(C)C)C(=O)N[C@@H](COCC=C)C(=O)OC, 18-membered ring
[11] = from C=CCOc1ccc(C[C@H](NC(=O)OC(C)(C)C)C(=O)N[C@@H](CC(C)C)C(=O)N[C@@H](CC=C)C(=O)OC)cc1, 17-membered ring
[12] = from C=CCCOc1ccc(C[C@H](NC(=O)OC(C)(C)C)C(=O)N[C@@H](CC(C)C)C(=O)N[C@@H](CC=C)C(=O)OC)cc1, 18-membered ring
[13] = from C=CCCOc1ccc(C[C@H](NC(=O)OC(C)(C)C)C(=O)N[C@@H](CC(C)C)C(=O)N[C@@H](CCC=C)C(=O)OC)cc1, 19-membered ring

C=CCCCCCC[C@@](C)(NC(=O)[C@H](CC(N)=O)NC(=O)[C@@H](NC(=O)OCC1c2ccccc2-c2ccccc21)C(C)C)C(=O)N[C@@H](CCCCN)C(=O)N[C@@H](CCCCN)C(=O)N[C@H](C(=O)N[C@@H](CC(C)C)C(=O)NCC(=O)N[C@@H](CCCCN)C(=O)N[C@@](C)(CCCC=C)C(=O)N[C@H](C(=O)N[C@@H](CCCCN)C(=O)N[C@H](C(=O)N[C@H](C(=O)N[C@@H](CCCCN)C(N)=O)C(C)C)C(C)C)[C@@H](C)CC)[C@@H](C)CC
ring closure, conversion by HPLC ([1]; 33-membered ring): 88%

C=CCCCCCC[C@@](C)(NC(=O)[C@H](Cc1ccccc1)NC(=O)[C@@H](NC(=O)[C@H](CCC(N)=O)NC(=O)[C@H](CCC(N)=O)NC(=O)[C@H](CO)NC(=O)[C@H](CCC(N)=O)NC(=O)OCC1c2ccccc2-c2ccccc21)[C@@H](C)O)C(=O)N[C@@H](CC(N)=O)C(=O)N[C@@H](CC(C)C)C(=O)N[C@@H](Cc1c[nH]c2ccccc12)C(=O)N[C@@H](CCCNC(=N)N)C(=O)N[C@@H](CC(C)C)C(=O)N[C@@H](CC(C)C)C(=O)N[C@@](C)(CCCC=C)C(=O)N[C@@H](CCC(N)=O)C(=O)N[C@@H](CC(N)=O)C(N)=O
ring closure, conversion by HPLC ([1]; 33-membered ring): 92%

C=CCCC[C@](C)(NC(=O)[C@H](Cc1ccccc1)NC(=O)[C@@H](NC(=O)[C@H](Cc1c[nH]cn1)NC(=O)[C@](C)(CCCC=C)NC(=O)[C@H](CCCNC(=N)N)NC(=O)[C@H](CCC(=O)O)NC(=O)[C@H](CC(C)C)NC(=O)[C@H](CCC(=O)O)NC(=O)[C@H](C)NC(=O)OCC1c2ccccc2-c2ccccc21)[C@@H](C)O)C(=O)N[C@@H](CC(C)C)C(=O)N[C@@H](Cc1c[nH]cn1)C(=O)N[C@@H](CCC(N)=O)C(=O)N[C@@H](CCCNC(=N)N)C(N)=O
ring closure, conversion by HPLC ([1]; 21-membered ring): 93%

COC(=O)[C@@H]1CSCC=CCSC[C@H](NC(=O)OC(C)(C)C)C(=O)N[C@@H](CC(C)C)C(=O)N[C@@H](CC(C)C)C(=O)N1 [Boc-Cys(S-allyl)-Leu-Leu-Cys(S-allyl)-OMe]
ring closure, isolated yield [2, 9]: 81% | ring closure, isolated yield [3, 9]: 77% | ring closure, isolated yield [4, 9]: 42% | ring closure, isolated yield [5, 9]: 33% | ring closure, isolated yield [6, 9]: 83% | ring closure, isolated yield [7, 9]: 40% | ring closure, isolated yield [8, 9]: 79%

COC(=O)[C@@H]1COCC=CCOC[C@H](NC(=O)OC(C)(C)C)C(=O)N[C@@H](CC(C)C)C(=O)N[C@@H](CC(C)C)C(=O)N1 [Boc-Ser(O-allyl)-Leu-Leu-Ser(O-allyl)-OMe]
ring closure, isolated yield [2, 10]: 76% | ring closure, isolated yield [3, 10]: 73% | ring closure, isolated yield [4, 10]: 44% | ring closure, isolated yield [5, 10]: 34% | ring closure, isolated yield [6, 10]: 74% | ring closure, isolated yield [7, 10]: 36%

COC(=O)[C@@H]1CC=CCOc2ccc(cc2)C[C@H](NC(=O)OC(C)(C)C)C(=O)N[C@@H](CC(C)C)C(=O)N1 [Boc-Tyr(O-allyl)-Leu-allylGly-OMe]
ring closure, isolated yield [2, 11]: 71% | ring closure, isolated yield [3, 11]: 58% | ring closure, isolated yield [4, 11]: 45% | ring closure, isolated yield [5, 11]: 41% | ring closure, isolated yield [6, 11]: 66% | ring closure, isolated yield [7, 11]: 47% | ring closure, isolated yield [8, 11]: 63%

COC(=O)[C@@H]1CC=CCCOc2ccc(cc2)C[C@H](NC(=O)OC(C)(C)C)C(=O)N[C@@H](CC(C)C)C(=O)N1 [Boc-Tyr(O-homoallyl)-Leu-allylGly-OMe]
ring closure, isolated yield [2, 12]: 61% | ring closure, isolated yield [3, 12]: 54% | ring closure, isolated yield [4, 12]: 24% | ring closure, isolated yield [5, 12]: 17% | ring closure, isolated yield [6, 12]: 60% | ring closure, isolated yield [7, 12]: 21% | ring closure, isolated yield [8, 12]: 55%

COC(=O)[C@@H]1CCC=CCCOc2ccc(cc2)C[C@H](NC(=O)OC(C)(C)C)C(=O)N[C@@H](CC(C)C)C(=O)N1 [Boc-Tyr(O-homoallyl)-Leu-homoallylGly-OMe]
ring closure, isolated yield [2, 13]: 77% | ring closure, isolated yield [3, 13]: 68% | ring closure, isolated yield [4, 13]: 44% | ring closure, isolated yield [5, 13]: 24% | ring closure, isolated yield [6, 13]: 66% | ring closure, isolated yield [7, 13]: 26% | ring closure, isolated yield [8, 13]: 70%
